Source: ChEMBL document CHEMBL1201862, “PubChem BioAssay data set” (2004)
The source made the active and inactive calls.

How the values were obtained:
[1] = Trypanosoma cruzi growth suppression in host cells – NIH3T3 host cells, beta-gal luminescence, confirmation (AID 2044); assay type: functional, cell-based;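 note: intracellular parasites grown in NIH/3T3 mouse fibroblasts as host cells; luminescent beta-galactosidase reporter signal from transgenic T. cruzi replicating inside host cells; inhibitors lower the luminescence signal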
[2] = target: T1, Calpain-2 catalytic subunit (Sus scrofa, UniProt P43367); experiment: m-calpain protease blockers, concentration series – biochemical, fluorogenic peptide substrate, dose response (AID 1420); assay type: functional
T1 sequence (P43367 whole entry): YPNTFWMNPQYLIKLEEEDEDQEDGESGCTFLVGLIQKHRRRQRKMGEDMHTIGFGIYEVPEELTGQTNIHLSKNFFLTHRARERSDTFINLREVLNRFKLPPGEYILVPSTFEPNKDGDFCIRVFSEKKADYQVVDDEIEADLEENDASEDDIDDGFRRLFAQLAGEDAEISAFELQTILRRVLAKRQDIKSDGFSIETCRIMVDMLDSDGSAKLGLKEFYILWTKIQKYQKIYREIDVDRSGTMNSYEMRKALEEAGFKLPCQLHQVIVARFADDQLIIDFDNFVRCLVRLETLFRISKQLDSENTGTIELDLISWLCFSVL

[3] = NIH3T3 cell viability loss – ATP luminescence, mouse fibroblasts, counter-screen, dose response (AID 2010); assay type: functional, cell-based;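 note: cells exposed to compound for about 90 hours before reading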
[4] = target: T2, Heat shock factor protein 1 (Mus musculus, UniProt P38532); experiment: decrease of HSF1-responsive luciferase luminescence – cell-based, NIH3T3, dose retest, confirmation (AID 2382); assay type: functional;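 note: NIH3T3 fibroblasts with HSF1-driven luciferase reporter stressed by proteasome inhibitor MG132; luminescence from HSF1-driven luciferase expression after 8 hours of MG132 stress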
T2 sequence (P38532 whole entry): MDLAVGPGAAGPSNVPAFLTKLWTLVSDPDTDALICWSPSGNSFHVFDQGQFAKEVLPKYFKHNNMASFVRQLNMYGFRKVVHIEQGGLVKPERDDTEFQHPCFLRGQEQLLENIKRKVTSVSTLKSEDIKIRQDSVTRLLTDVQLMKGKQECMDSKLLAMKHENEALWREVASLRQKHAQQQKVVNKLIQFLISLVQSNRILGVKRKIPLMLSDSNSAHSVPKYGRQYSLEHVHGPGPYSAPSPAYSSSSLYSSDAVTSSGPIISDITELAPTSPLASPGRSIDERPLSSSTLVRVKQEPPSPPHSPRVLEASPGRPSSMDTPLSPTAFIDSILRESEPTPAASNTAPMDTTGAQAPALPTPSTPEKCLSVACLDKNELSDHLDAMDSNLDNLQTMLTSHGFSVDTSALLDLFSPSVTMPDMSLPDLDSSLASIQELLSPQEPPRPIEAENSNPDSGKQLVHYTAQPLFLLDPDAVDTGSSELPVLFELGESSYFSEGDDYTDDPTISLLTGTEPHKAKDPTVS

cells = assay type: functional
[5] = P. falciparum Dd2 growth inhibitors, dose response, SYBR Green, cherry-picked samples (AID 1159567); assay type: functional, cell-based
[6] = Luminescence Cell-Based Dose Confirmation HTS to Identify Inhibitors of Platelet Dense Granule Release. [Related pubchem assays: 1663 (Primary HTS), 1678 (Summary of Project)]; assay type: functional
[7] = target: T2, Heat shock factor protein 1; experiment: enhancement of HSF1-driven luciferase signal – cell-based, NIH3T3, luminescence, dose retest, confirmation (AID 435004); assay type: functional;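 note: stress induced by proteasome inhibitor MG132 added 30 min after compound; luciferase reporter driven by HSF1 response element in NIH3T3 cells; actives raise luminescence as potentiators of the MG132 stress response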
[8] = target: Luciferin 4-monooxygenase (Photinus pyralis, UniProt P08659); experiment: inhibition of purified Photinus pyralis luciferase – biochemical, luminescence, dose response (AID 1891)
Chain of Luciferin 4-monooxygenase (P08659 whole entry): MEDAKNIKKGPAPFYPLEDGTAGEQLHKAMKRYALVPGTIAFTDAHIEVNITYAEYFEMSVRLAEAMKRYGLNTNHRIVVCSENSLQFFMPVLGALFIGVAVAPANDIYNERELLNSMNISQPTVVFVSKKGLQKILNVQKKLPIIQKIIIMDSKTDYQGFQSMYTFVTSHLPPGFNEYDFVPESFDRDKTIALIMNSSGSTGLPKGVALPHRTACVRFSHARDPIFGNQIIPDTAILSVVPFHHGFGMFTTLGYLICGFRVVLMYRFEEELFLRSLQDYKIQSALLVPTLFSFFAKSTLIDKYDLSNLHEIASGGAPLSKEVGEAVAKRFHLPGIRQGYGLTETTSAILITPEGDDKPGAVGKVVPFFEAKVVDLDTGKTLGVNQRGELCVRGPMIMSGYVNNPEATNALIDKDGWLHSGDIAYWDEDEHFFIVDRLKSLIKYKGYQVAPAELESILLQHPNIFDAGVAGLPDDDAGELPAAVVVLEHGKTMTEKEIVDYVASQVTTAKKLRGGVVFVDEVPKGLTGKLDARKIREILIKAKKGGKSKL

[9] = Luminescence Cell-Based Dose Retest to Confirm Inhibitors of Cancer Stem Cells. [Related pubchem assays (depositor defined):AID2717, AID2721]; assay type: functional; conditions: Homo sapiens
[10] = microbe, parasite or virus in culture; assay type: functional; conditions: Mycobacterium tuberculosis
[11] = HIV-1 AD8 envelope cell-cell fusion blockers – cherry-pick, dose response (AID 652062); assay type: functional, cell-based;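 note: luciferase signal from cell-cell fusion driven by HIV-1 clade B AD8 Env; potency is for inhibitors of fusion seen as a drop in luminescence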
Cytochrome P450 2C19 = Cytochrome P450 2C19 (Homo sapiens, UniProt P33261); experiment: Cytochrome panel assay with activity outcomes. Panel member name: p450-cyp2c19 Compounds with AC50 equal or less than 10 uM are considered active; assay type: functional; conditions: read-out: AC50
Chain of Cytochrome P450 2C19 (P33261 whole entry): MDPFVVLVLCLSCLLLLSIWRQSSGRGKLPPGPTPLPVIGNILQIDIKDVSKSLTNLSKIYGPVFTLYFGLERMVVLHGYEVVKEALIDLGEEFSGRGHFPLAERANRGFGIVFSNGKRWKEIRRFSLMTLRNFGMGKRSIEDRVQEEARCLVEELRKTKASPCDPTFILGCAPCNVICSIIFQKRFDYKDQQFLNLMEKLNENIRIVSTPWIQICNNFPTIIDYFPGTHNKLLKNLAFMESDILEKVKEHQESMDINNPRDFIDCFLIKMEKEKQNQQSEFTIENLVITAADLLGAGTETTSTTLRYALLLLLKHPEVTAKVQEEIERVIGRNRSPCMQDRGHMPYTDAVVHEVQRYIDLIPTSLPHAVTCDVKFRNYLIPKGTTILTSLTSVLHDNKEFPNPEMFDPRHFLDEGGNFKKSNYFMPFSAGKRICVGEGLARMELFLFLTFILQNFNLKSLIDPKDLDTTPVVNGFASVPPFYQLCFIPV

Cytochrome P450 2D6 = Cytochrome P450 2D6 (Homo sapiens, UniProt P10635);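 note: CYP2D6 member of a cytochrome P450 panel assay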
Chain of Cytochrome P450 2D6 (P10635 whole entry): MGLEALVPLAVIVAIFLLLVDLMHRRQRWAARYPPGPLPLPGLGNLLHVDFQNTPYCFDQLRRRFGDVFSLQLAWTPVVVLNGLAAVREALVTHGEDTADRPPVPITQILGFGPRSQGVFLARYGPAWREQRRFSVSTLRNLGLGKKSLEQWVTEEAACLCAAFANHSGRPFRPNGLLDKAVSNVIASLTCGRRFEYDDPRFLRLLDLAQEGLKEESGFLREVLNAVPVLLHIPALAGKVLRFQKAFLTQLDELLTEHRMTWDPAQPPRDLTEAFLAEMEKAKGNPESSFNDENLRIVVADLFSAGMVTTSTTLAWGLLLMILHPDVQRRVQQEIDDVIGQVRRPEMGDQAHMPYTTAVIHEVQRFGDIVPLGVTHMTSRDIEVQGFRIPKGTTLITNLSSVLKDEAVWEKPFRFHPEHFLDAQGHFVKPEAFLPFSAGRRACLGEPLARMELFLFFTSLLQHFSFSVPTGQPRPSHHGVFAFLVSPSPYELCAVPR

[12] = target: T3, Replicative DNA helicase DnaB (Mycobacterium tuberculosis, UniProt P9WMR3); experiment: DnaB intein splicing inhibitors, dose response, biochemical, cell-free fluorescence (AID 449749); assay type: functional
T3 sequence (P9WMR3 whole entry): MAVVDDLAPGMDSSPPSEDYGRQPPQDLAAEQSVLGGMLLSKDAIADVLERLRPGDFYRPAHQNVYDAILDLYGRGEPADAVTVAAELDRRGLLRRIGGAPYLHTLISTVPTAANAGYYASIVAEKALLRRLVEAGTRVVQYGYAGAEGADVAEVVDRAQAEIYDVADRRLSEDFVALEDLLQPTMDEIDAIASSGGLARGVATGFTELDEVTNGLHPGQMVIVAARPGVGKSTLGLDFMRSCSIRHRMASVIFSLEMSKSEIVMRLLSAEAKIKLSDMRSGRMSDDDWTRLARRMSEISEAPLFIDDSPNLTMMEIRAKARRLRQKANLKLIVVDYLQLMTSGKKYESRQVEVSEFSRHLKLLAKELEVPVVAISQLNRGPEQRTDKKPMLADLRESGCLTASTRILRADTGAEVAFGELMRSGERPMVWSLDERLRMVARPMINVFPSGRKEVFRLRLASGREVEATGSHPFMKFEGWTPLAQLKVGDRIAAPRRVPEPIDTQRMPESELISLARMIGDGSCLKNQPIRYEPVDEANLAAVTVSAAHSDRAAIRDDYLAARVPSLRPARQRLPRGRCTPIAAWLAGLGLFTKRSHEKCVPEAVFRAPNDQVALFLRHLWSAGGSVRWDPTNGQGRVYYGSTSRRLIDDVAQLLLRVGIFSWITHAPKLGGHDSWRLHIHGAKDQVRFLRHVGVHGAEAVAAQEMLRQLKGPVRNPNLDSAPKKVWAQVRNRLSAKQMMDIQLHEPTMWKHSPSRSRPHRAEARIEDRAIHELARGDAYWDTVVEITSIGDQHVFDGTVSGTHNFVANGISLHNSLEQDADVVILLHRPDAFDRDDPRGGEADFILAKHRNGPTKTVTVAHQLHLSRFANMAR

Protein RecA = target: T4, Protein RecA (Mycobacterium tuberculosis, UniProt P9WHJ3); experiment: Fluorescence Cell-Free Homogeneous Dose Retest to Identify Inhibitors of RecA-Intein Splicing Activity. [Related pubchem assays (depositor defined):AID2097, AID2223, AID489010, AID492950]; assay type: functional
T4 sequence (P9WHJ3 whole entry): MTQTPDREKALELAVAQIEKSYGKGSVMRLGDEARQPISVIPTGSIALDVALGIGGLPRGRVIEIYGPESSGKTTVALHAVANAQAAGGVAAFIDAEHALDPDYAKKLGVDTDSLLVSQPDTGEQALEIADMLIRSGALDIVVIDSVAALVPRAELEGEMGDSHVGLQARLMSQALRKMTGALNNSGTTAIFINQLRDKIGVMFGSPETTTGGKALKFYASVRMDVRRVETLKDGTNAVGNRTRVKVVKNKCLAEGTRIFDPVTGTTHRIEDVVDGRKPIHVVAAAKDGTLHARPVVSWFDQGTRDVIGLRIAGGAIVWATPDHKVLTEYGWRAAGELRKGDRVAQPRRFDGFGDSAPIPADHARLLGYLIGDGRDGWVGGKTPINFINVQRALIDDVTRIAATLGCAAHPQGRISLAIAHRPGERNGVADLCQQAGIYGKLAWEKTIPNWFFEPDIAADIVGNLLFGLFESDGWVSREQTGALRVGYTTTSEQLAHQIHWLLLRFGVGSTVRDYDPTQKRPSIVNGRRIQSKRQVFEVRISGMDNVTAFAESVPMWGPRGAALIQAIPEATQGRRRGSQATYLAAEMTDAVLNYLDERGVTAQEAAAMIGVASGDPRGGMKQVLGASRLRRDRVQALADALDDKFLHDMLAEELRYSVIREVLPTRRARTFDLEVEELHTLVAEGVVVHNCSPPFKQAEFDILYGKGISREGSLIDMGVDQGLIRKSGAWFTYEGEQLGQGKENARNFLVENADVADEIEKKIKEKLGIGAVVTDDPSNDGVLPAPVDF

[13] = target: T5, Zinc finger protein mex-5 (Caenorhabditis elegans, UniProt Q9XUB2); experiment: potency of MEX-5 RNA-binding blockers – biochemical, C. elegans, fluorescence polarization, dose response (AID 1960)
T5 sequence (Q9XUB2 whole entry): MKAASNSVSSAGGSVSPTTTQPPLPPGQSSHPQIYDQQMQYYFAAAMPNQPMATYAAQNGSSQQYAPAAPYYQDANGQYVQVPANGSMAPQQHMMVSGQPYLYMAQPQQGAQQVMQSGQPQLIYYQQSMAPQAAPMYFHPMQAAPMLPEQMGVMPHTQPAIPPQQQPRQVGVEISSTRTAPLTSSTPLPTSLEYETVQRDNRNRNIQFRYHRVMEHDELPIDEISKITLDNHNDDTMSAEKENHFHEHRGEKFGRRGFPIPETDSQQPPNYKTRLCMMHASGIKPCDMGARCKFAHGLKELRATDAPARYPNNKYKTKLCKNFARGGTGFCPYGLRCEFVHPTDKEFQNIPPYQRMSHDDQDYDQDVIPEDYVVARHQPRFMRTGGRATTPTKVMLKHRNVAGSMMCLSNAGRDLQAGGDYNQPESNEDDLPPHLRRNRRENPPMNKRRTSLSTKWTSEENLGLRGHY

H9c2 = experiment: cells; assay type: functional, cell-based; conditions: Rattus norvegicus, H9c2, Myocardium;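 note: confirmatory concentration-response retest of ultra-high-throughput screening hits for modulation of myocardial damage; cell death induced by hydrogen peroxide oxidative stress; compound pretreatment for 60 min then peroxide exposure for 2 h; potency is for protecting the cells against peroxide damage rather than for killing them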

With `COc1ccc(CNc2oc(COc3ccc(Cl)cc3)nc2C#N)cc1` the EC50 [1] was 1.36 µM (active), the IC50 [2] was 4 µM (not active) and the EC50 [3] was > 60 µM (not active).

In the case of `CCN1C(NCCc2cccs2)=N[C@@H](c2cccs2)C(C(=O)OC)=C1C`, the EC50 [4] is reported as > 195 µM (not active).

With `Cc1ccc(CCC(=O)Nc2ccc(C)c(C)c2)o1` the IC50 (cells) was 49.8 µM (active).

With `CC1Cc2ccccc2N1C(=O)CSc1ncccc1C(=O)O` (configuration not stated) the EC50 [4] was > 195 µM (not active).

In the case of `COc1ccc2c3c([nH]c2c1)[C@H](CO)N(Cc1nccs1)CC31CN(Cc2cccnc2)C1`, the AC50 [5] is reported as 10.7 µM (active).

With `COC(=O)c1sccc1NC(=O)Nc1cccc(F)c1` the EC50 [6] was 4.6 µM (active), the EC50 [7] was 237 µM (active) and the EC50 [8] was 930 nM (active).

With `Cc1ccc(/C=C/C(=O)N2CC(C)CC(C)C2)o1` (configuration not stated) the EC50 [7] was 24.5 µM (active), the AC50 [9] was 22.8 µM (active) and the CC50 [10] was > 40 µM (active).

In the case of `Cc1ccccc1-n1c(=O)cc(N2CCc3ccccc32)[nH]c1=O`, the EC50 [4] is reported as > 195 µM (not active).

For `CCCCOc1ccc(S(=O)(=O)Nc2cccnc2)cc1`, the AC50 [11] was 7.89 µM (active), the AC50 (Cytochrome P450 2C19) was 355 nM (inconclusive) and the AC50 (Cytochrome P450 2D6) was 25.1 µM (inconclusive).

For `CCC(c1nnnn1Cc1ccco1)N(Cc1cc2cc(OC)ccc2nc1O)C1CCCCC1` (configuration not stated), the AC50 [12] was > 380 µM (inactive), the EC50 (Protein RecA) was 40.2 µM (inconclusive) and the EC50 [7] was 10.7 µM (active).

With `Cc1ccc(CN(C)C(=O)C2CCC(=O)N(CCc3ccccc3)C2)o1` (configuration not stated) the EC50 [7] was > 260 µM (inactive).

In the case of `N#Cc1ccc(-c2ccc([C@@H]3[C@@H]4CN(Cc5cocn5)C[C@H]3N4)cc2)cc1`, the AC50 [5] is reported as 3.73 µM (active).

With `O=C(c1ccc(COc2ccc(Cl)cc2)cc1)N1CCCCC1` the IC50 [2] was 10.4 µM (not active).

With `C=CCn1c(=O)/c(=C/c2ccc(C)o2)s/c1=C(/C#N)C(=O)c1ccccc1` the EC50 [13] was > 300 µM (inconclusive).

For `COc1cc(NC(=O)c2cc3ccccc3cc2OC)ccc1NC(=O)c1cccs1`, the EC50 [4] was 14.1 µM (active) and the IC50 (H9c2) was > 79 µM (inactive).

For `CCCC/N=C(/C)c1c(O)oc2ccccc2c1=O`, the IC50 [2] was 19.7 µM (not active).
